This note sets out measurements from patent US10421718B2, “EBNA1 inhibitors and their method of use” (priority 2013, dated 2019).

pIC50: −log10 of the molar value. Some results are limits rather than exact numbers.

The assay addresses T1, His-EBNA1 (DNA binding domain of EBNA1, amino acids 459-607) (Epstein-Barr virus, UniProt P03211).
T1 construct: made in house; host or cells: E. coli
The assay is described as follows: Inhibition of 5′-biotin-oPL4624 binding to His-EBNA1 using Alpha Screen technology. The note with it: Alpha Screen Activity (IC50, inhibition of 5′-biotin-oPL4624 binding to His-EBNA1), 15 nM His-EBNA1, 0.2 nM bt-oPL4624, 2 hr room temperature. An outline of the steps: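 His-tagged EBNA1 DNA-binding domain (aa 459-607, E. coli-expressed) at 15 nM with 0.2 nM biotinylated self-complementary oligo, streptavidin donor and nickel acceptor beads, in 25 mM Tris pH 7.2, 160 mM NaCl, 1 mM MgCl2. Compound 3.2 nM-100 μM final; AlphaScreen read after 2 h at room temperature, one-site dose-response fit.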
In general terms: In Alpha technology, singlet oxygen from a donor bead excites a nearby acceptor bead.

T1 sequence (P03211 459-607): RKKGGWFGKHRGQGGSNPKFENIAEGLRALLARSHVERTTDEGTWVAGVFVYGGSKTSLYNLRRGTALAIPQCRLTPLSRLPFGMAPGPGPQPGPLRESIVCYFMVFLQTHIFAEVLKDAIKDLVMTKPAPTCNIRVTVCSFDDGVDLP

Take `O=C(O)c1cccc(C#Cc2cscn2)c1-c1ccncc1` [Entry 172]: the pIC50 (in general, the negative decadic logarithm of the IC50, by convention in mol/L) is 4.00 to 5.00.

Molecule `Cc1nc2cc(-c3c(C#Cc4cscn4)cccc3C(=O)O)ccc2s1` [Entry 173] gave a negative logarithm of the IC50 (pIC50) of 4.00 to 5.00.

As to `O=C(O)c1cccc(C#Cc2ccncc2)c1-c1c[nH]c2ccccc12` [Entry 174, 2-(1H-indol-3-yl)-3-[2-(pyridin-4-yl)ethynyl]benzoic acid], the negative-log IC50 (pIC50) is 5.00 to 6.00.

`CN(C)c1ccc(-c2c(C#Cc3ccncc3)cccc2C(=O)O)cc1` [Entry 175, 2-[4-(dimethylamino)phenyl]-3-[2-(pyridin-4-yl)ethynyl]benzoic acid]: the pIC50 is 4.00 to 5.00.

Take `CN1CCOc2cc(-c3c(C#Cc4ccncc4)cccc3C(=O)O)ccc21` [Entry 176, 2-(4-methyl-3,4-dihydro-2H-1,4-benzoxazin-7-yl)-3-[2-(pyridin-4-yl)ethynyl]benzoic acid]: the pIC50 is 4.00 to 5.00.

`O=C(O)c1cccc(C#Cc2ccncc2)c1-c1ccccc1` [Entry 177, 2-phenyl-3-[2-(pyridin-4-yl)ethynyl]benzoic acid] showed a pIC50 of 3.00 to 4.00.

In turn, `O=C(O)c1cccc(C#Cc2cc(C(=O)O)c3cc[nH]c3c2)c1` [Entry 178, 6-(3-carboxy-phenylethynyl)-1H-indole-4-carboxylic acid] had a pIC50 of 5.00 to 6.00.

`NC(=O)c1cc(C#Cc2cccc(C(=O)O)c2)cc2[nH]ccc12` [Entry 179, 3-(4-carbamoyl-1H-indol-6-ylethynyl)-benzoic acid] had a pIC50 of 5.00 to 6.00.

`NC(=O)c1cccc(C#Cc2cccc(C(=O)O)c2)c1` [Entry 180, 3-(3-carbamoyl-phenylethynyl)-benzoic acid] gave a pIC50 above 6.00.

For `O=C(O)c1cccc(C#Cc2cn(S(=O)(=O)c3ccccc3)c3ccccc23)c1` [Entry 181, 3-(1-benzenesulfonyl-1H-indol-3-ylethynyl)-benzoic acid], the pIC50 was 4.00 to 5.00.

Molecule `O=C(O)c1cccc(C#Cc2c[nH]c3ccccc23)c1` [Entry 182, 3-(1H-indol-3-ylethynyl)-benzoic acid] showed a pIC50 of 4.00 to 5.00.

For `COC(=O)c1cccc(C#Cc2cccc(C(=O)O)c2)c1` [Entry 183, 3-(3-carboxy-phenylethynyl)-benzoic acid methyl ester], the pIC50 was 3.00 to 4.00.

On to `COc1cc(C#Cc2cccc(C(=O)O)c2)cc(C(N)=O)c1` [Entry 184, 3-(3-carbamoyl-5-methoxy-phenylethynyl)-benzoic acid], for which the pIC50 was 4.00 to 5.00.

In turn, `COc1ccc(-c2c(C#Cc3ccncc3)cccc2C(=O)O)cc1O` [Entry 185, 3′-hydroxy-4′-methoxy-6-pyridin-4-ylethynyl-biphenyl-2-carboxylic acid] had a pIC50 of 3.00 to 4.00.

In the case of `COc1cc(O)cc(-c2c(C#Cc3ccncc3)cccc2C(=O)O)c1` [Entry 186, 5′-hydroxy-3′-methoxy-6-pyridin-4-ylethynyl-biphenyl-2-carboxylic acid], the pIC50 was 4.00 to 5.00.

The molecule `O=C(O)c1cccc(C#Cc2ccncc2)c1-c1cc[nH]n1` [Entry 187, 2-(1H-pyrazol-3-yl)-3-pyridin-4-ylethynyl-benzoic acid] showed a pIC50 of 4.00 to 5.00.

`O=C(O)c1cccc(C#Cc2ccncc2)c1-c1cn[nH]c1` [Entry 188, 2-(1H-pyrazol-4-yl)-3-pyridin-4-ylethynyl-benzoic acid] had a pIC50 of 3.00 to 4.00.

`Cc1noc(C)c1-c1c(C#Cc2ccncc2)cccc1C(=O)O` [Entry 189, 2-(3,5-dimethyl-isoxazol-4-yl)-3-pyridin-4-ylethynyl-benzoic acid]: the pIC50 is 4.00 to 5.00.

Turning to `Cc1nn(C)c(C)c1-c1c(C#Cc2ccccc2)cccc1C(=O)O` [Entry 190, 3-phenylethynyl-2-(1,3,5-trimethyl-1H-pyrazol-4-yl)-benzoic acid], the pIC50 was 3.00 to 4.00.

In turn, `Cc1ccc(C)n1-c1c(C#CC(C)(C)O)cccc1C(=O)O` [Entry 191, 2-(2,5-dimethyl-pyrrol-1-yl)-3-(3-hydroxy-3-methyl-but-1-ynyl)-benzoic acid] gave a pIC50 of 4.00 to 5.00.

`Cc1ccc(C)n1-c1c(C#Cc2ccncc2)cccc1C(=O)O` [Entry 192, 2-(2,5-dimethyl-pyrrol-1-yl)-3-pyridin-4-ylethynyl-benzoic acid] showed a pIC50 of 4.00 to 5.00.

For the molecule `Cc1ccc(C)n1-c1c(C#Cc2cccc(C(N)=O)c2)cccc1C(=O)O` [Entry 193, 3-(3-carbamoyl-phenylethynyl)-2-(2,5-dimethyl-pyrrol-1-yl)-benzoic acid], the pIC50 was 5.00 to 6.00.

On to `Cc1ccc(C)n1-c1c(C#Cc2cccc(C(=O)O)c2)cccc1C(=O)O` [Entry 194, 3-(3-carboxy-phenylethynyl)-2-(2,5-dimethyl-pyrrol-1-yl)-benzoic acid], for which the pIC50 is above 6.00.

In the case of `Cc1ccc(C)n1-c1c(C#Cc2cccc(CO)c2)cccc1C(=O)O` [Entry 195, 2-(2,5-dimethyl-pyrrol-1-yl)-3-(3-hydroxymethyl-phenylethynyl)-benzoic acid], the pIC50 is 4.00 to 5.00.

As for `Cc1ccc(C)n1-c1c(C#Cc2c[nH]c3ncccc23)cccc1C(=O)O` [Entry 196, 2-(2,5-dimethyl-pyrrol-1-yl)-3-(1H-pyrrolo[2,3-b]pyridin-3-ylethynyl)-benzoic acid], the pIC50 is 5.00 to 6.00.

In the case of `Cc1ccc(C)n1-c1c(C#CC(O)c2ccccc2)cccc1C(=O)O` (stereo not drawn) [Entry 197, 2-(2,5-dimethyl-pyrrol-1-yl)-3-(3-hydroxy-3-phenyl-prop-1-ynyl)-benzoic acid], the pIC50 is 4.00 to 5.00.

In turn, `CC(=O)Nc1cccc(C#Cc2cccc(C(=O)O)c2-n2c(C)ccc2C)c1` [Entry 198, 3-(3-acetylamino-phenylethynyl)-2-(2,5-dimethyl-pyrrol-1-yl)-benzoic acid] showed a pIC50 of 4.00 to 5.00.

As for `Cc1ccc(C)n1-c1c(C#CC2CC2)cccc1C(=O)O` [Entry 199, 3-cyclopropylethynyl-2-(2,5-dimethyl-pyrrol-1-yl)-benzoic acid], the pIC50 is 5.00 to 6.00.

The molecule `COc1cccc(C#Cc2cccc(C(=O)O)c2-n2c(C)ccc2C)c1` [Entry 200, 2-(2,5-dimethyl-pyrrol-1-yl)-3-(3-methoxy-phenylethynyl)-benzoic acid] showed a pIC50 of 5.00 to 6.00.

Molecule `O=C(O)c1cccc(C#Cc2ccccc2)c1-c1ccc2cn[nH]c2c1` [Entry 201, 2-(1H-indazol-6-yl)-3-phenylethynyl-benzoic acid] gave a pIC50 of 4.00 to 5.00.

On to `O=C(O)c1cccc(C#Cc2ccccc2)c1-c1ccc2c(c1)OCO2` [Entry 202, 2-benzo[1,3]dioxol-5-yl-3-phenylethynyl-benzoic acid], for which the pIC50 is 4.00 to 5.00.

`O=C(O)c1cccc(C#Cc2ccccc2)c1-c1ccc2cnccc2c1` [Entry 203, 2-isoquinolin-6-yl-3-phenylethynyl-benzoic acid] gave a negative-log IC50 (pIC50) of 4.00 to 5.00.

With `O=C(O)c1cccc(C#Cc2ccccc2)c1-c1cc2ccccc2o1` [Entry 204, 2-benzofuran-2-yl-3-phenylethynyl-benzoic acid], the pIC50 was 5.00 to 6.00.

The molecule `O=C(O)c1cccc(C#Cc2ccccc2)c1-c1cccc2cccnc12` [Entry 205, 3-phenylethynyl-2-quinolin-8-yl-benzoic acid] had a pIC50 of 4.00 to 5.00.

In the case of `Nc1ncc(-c2c(C#Cc3ccccc3)cccc2C(=O)O)cn1` [Entry 206, 2-(2-amino-pyrimidin-5-yl)-3-phenylethynyl-benzoic acid], the pIC50 is 3.00 to 4.00.

For the molecule `CN(C)Cc1ccc(-c2c(C#Cc3ccccc3)cccc2C(=O)O)cc1` [Entry 207, 4′-dimethylaminomethyl-6-phenylethynyl-biphenyl-2-carboxylic acid], the pIC50 is 3.00 to 4.00.

`Nc1ccc(C#Cc2cccc(C(=O)O)c2-c2ccc3cc[nH]c3c2)cc1` [Entry 208, 3-(4-amino-phenylethynyl)-2-(1H-indol-6-yl)-benzoic acid]: the pIC50 is 5.00 to 6.00.

For the molecule `O=C(O)c1ccc(C#Cc2cccc(C(=O)O)c2-c2ccc3cc[nH]c3c2)cc1` [Entry 209, 3-(4-carboxy-phenylethynyl)-2-(1H-indol-6-yl)-benzoic acid], the pIC50 was above 6.00.

Regarding `COc1ccc(C#Cc2cccc(C(=O)O)c2-c2ccc3cc[nH]c3c2)cc1` [Entry 210, 2-(1H-indol-6-yl)-3-(4-methoxy-phenylethynyl)-benzoic acid], the pIC50 is 5.00 to 6.00.

As for `NC(=O)c1ccc(C#Cc2cccc(C(=O)O)c2-c2ccc3cc[nH]c3c2)cc1` [Entry 211, 3-(4-carbamoyl-phenylethynyl)-2-(1H-indol-6-yl)-benzoic acid], the pIC50 was 5.00 to 6.00.

`O=C(O)c1cccc(C#Cc2ccc(C(=O)N3CCNCC3)cc2)c1-c1ccc2cc[nH]c2c1` [Entry 212, 2-(1H-indol-6-yl)-3-[4-(piperazine-1-carbonyl)-phenylethynyl]-benzoic acid]: the negative logarithm of the IC50 (pIC50) is 5.00 to 6.00.

Molecule `CC(=O)Nc1ccc(C#Cc2cccc(C(=O)O)c2-c2ccc3cc[nH]c3c2)cc1` [Entry 213, 3-(4-acetylamino-phenylethynyl)-2-(1H-indol-6-yl)-benzoic acid] gave a pIC50 of 4.00 to 5.00.

The molecule `O=C(Nc1ccc(C#Cc2cccc(C(=O)O)c2-c2ccc3cc[nH]c3c2)cc1)c1cccnc1` [Entry 214, 2-(1H-indol-6-yl)-3-{4-[(pyridine-3-carbonyl)-amino]phenylethynyl}-benzoic acid] had a pIC50 above 6.00.

Turning to `CS(=O)(=O)Nc1ccc(C#Cc2cccc(C(=O)O)c2-c2ccc3cc[nH]c3c2)cc1` [Entry 215, 2-(1H-indol-6-yl)-3-(4-methanesulfonylamino-phenylethynyl)-benzoic acid], the pIC50 is 5.00 to 6.00.

Consider `O=C(O)c1cccc(C#Cc2ccc(NS(=O)(=O)c3cccs3)cc2)c1-c1ccc2cc[nH]c2c1` [Entry 216, 2-(1H-indol-6-yl)-3-[4-(thiophene-2-sulfonylamino)-phenylethynyl]-benzoic acid], for which the pIC50 was 5.00 to 6.00.
